For one data set, the target named is BTK WT (Homo sapiens (Human), UniProt Q06187). Kind of data set: Lantha screening kinase reaction, inhibition of BTK WT. The class given is biochemical. Here is the method: The compound was predissolved in 100% DMSO. 10 mM drug stock solution was obtained by dissolution at room temperature and then serially diluted with 8 vol % DMSO solution to a final concentration of 10-0.005 μM. […] Among the wells, the kinase in the blank well was replaced with a reaction buffer and the kinase well (Enzyme) was not added with any drug. After shaking at 25° C. for 60 minutes in the dark, 10 μl of Detection Solution (mixture of Invitrogen PV3528 and EDTA, which was diluted with TR-FRET dilution buffer, the working concentration of EDTA was 5 mM, the working concentration of Lanthascreening Tb PY20 antibody was 0.2 nM) was added and shaken at room temperature for 30 minutes. The plates were read on a VictorX5 fluorescent plate reader (PerkinElmer) and the light absorption at an excitation wavelength of 340 nm and emission wavelengths of 500 nm and 520 nm was measured.
Sequence of BTK WT (Q06187 whole entry): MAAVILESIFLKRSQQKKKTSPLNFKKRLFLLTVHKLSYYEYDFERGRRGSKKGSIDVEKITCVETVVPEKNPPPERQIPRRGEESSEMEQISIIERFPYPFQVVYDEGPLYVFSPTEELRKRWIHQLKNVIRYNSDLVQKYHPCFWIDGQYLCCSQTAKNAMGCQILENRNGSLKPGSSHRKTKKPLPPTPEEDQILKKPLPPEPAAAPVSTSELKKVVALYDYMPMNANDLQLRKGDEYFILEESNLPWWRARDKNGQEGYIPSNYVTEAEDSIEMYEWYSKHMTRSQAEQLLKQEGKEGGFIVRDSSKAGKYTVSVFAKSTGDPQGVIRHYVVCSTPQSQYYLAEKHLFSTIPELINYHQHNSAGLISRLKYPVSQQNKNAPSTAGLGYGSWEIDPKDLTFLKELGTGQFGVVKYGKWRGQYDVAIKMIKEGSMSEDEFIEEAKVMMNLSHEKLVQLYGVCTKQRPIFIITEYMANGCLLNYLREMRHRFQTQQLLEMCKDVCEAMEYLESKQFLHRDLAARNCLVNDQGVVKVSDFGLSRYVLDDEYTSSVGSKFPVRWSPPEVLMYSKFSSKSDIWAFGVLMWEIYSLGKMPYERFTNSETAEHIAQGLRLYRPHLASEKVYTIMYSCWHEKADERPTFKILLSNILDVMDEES
The calculation method for the inhibition ratio (referring to the specification of Invitrogen, PV3363) was as follows: Emission ratio (ER):Coumarin Emission (520 nm)/Fluorescein Emission (500 nm) 1. The inhibition ratio (IR):(ERkinase−ERtest compound)/(ERkinase−ERblank)×100%. 2.
The half-inhibitory concentration IC50 was calculated by fitting with XLFIT5.0 software (IDBS, UK).

Another data set deals with wild-type EGFR kinase (Homo sapiens (Human), UniProt P00533). Kind of data set: Wild type EGFR kinase inhibition test (z-lyte). The class given is biochemical. Conditions: 10 μM ATP; read-out: EGFR WT IC50. An excerpt:
All the following reagents used in z-lyte test are commercially available from Invitrogen.
The calculation method for the inhibition ratio (referring to the specification of Invitrogen, PV3363) was as follows: ER=Coumarin Emission(450 nm)/Fluorescein Emission(520 nm) 1. Phosphorylation ratio=(1−((ER×C3520nm−C3450nm)/((C1450nm−C3450nm)+ER×(C3520nm−C1520nm))))×100% 2. Inhibition ratio (IR)=(1−phosphorylation ratio of the test compound)/(phosphorylation ratio of C2))×100% 3.
The half-inhibitory concentration IC50 was calculated by fitting with XLFIT 5.0 software (IDBS, UK).

The nature of a further data set: in vivo. The following applies: male, ICR, mouse, in vivo, po, 30 mg/kg. Here is the method:
Test Animals: ICR mice, weight 28-30 g, male, totally 12, purchased from SLAC Laboratory Animal Co., Ltd. Mice were fasting one night before administration and freely fed 4 hours after administration.
Administration and Blood collection: 6 mice were administered intragastrically (PO) in a administered dosage of 30 mg/kg and a administered volume of 10 mL/kg. One administration route was subjected with 6 mice, blood samples of three mice were collected at one time point, and blood samples of another three mice were collected at alternate time point alternately. Blood was collected at 8 time points of 0.083, 0.25, 0.5, 1, 2, 4, 8, 24 h after administration respectively.
Animals were manually controlled at the time of collection and approximately 80 μL of blood was collected from the mice fundus venous plexus into a tube containing K2EDTA. The collected blood sample was put on wet ice, centrifuged within 15 min (8000 rpm, 4 min at 4° C.), and then the plasma sample was taken and stored at minus 20° C. till analysis. The compounds were prepared on the day of the experiment.
Solvent excipient information: DMSO (brand: Sigma, batch number: SHBD2446V); 2-hydroxypropyl-3-cyclodextrin (brand: Sigma, batch number: BCBN8227V), acetic acid (brand: Sinopharm Group, batch number: 20150616), sodium acetate (Brand: GENERAL-REAGENT, batch number: P1246037).
Preparation of a 3 mg/mL PO dosing solution: the solvent was a solution of 5% DMSO and 95% PH4.5 (sodium acetate-acetate) in 20% of 2-hydroxypropyl-β-cyclodextrin.
Analytical method: Plasma samples were analyzed by liquid chromatography-tandem mass spectrometry (Instrument type: Triple Quad™ 4000).
Preparation of the standard curve: preparing a standard curve of the test compound 1n the plasma matrix of ICR mice with a linear range of 1.00-3000 ng/mL, and preparing control samples at low, medium and high concentrations of 3 ng/mL, 500 ng/mL, and 2400 ng/mL respectively.
Treatment of biological samples: the frozen plasma samples were thawed on ice, and after the samples were thawed, they were vortexed on a vortex for 5 min. 20 μL of plasma sample was added to a 96-well plate, and 200 μL of acetonitrile (brand: Merck, Lot: 1854029643) containing an internal standard dexamethasone (Brand: NIFDC, Lot: 1N2V-DPGY, 2000 ng/mL) was added to precipitate protein, which were vortexed for 5 min, and then centrifuged at 3700 rpm and 4° C. for 15 min. The supernatant was extracted and twice centrifuged under the same conditions, and finally 2 μL of the supernatant solution was analyzed by LC-MS/MS.

Sequence of wild-type EGFR kinase (P00533 25-1210): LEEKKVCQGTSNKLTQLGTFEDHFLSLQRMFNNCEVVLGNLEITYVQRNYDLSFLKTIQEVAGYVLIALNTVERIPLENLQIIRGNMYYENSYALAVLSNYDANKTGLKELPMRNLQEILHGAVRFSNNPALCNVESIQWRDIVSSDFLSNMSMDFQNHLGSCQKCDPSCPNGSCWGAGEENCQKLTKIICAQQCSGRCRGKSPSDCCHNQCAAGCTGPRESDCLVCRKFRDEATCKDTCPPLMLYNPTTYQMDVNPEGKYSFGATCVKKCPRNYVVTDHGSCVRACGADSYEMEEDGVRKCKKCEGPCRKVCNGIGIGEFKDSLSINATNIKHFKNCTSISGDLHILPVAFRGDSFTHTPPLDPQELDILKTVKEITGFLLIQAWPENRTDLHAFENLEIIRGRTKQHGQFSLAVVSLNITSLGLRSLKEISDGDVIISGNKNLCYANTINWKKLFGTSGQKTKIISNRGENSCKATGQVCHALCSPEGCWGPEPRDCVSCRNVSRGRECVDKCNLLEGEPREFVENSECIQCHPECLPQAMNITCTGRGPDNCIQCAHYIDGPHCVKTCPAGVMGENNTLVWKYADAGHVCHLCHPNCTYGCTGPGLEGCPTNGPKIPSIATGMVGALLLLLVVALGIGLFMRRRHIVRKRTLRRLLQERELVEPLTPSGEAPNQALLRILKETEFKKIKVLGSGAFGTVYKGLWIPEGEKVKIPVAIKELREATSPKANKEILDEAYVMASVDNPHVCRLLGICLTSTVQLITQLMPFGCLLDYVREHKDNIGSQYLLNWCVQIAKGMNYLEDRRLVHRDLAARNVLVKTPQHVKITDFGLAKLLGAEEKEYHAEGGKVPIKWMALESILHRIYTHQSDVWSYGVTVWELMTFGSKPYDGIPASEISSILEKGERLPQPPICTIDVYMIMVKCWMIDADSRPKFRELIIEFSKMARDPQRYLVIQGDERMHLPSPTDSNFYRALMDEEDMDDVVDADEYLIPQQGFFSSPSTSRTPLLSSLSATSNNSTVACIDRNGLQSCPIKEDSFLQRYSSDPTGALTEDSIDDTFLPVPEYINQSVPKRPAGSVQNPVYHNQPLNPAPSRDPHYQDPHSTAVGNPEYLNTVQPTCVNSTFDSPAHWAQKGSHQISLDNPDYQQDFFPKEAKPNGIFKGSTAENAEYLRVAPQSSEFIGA

A word on the IC50: it is the midpoint of a concentration-inhibition curve. On to `C=CC(=O)N1CCC(Nc2nc(Nc3ccc(OCCOC)cc3)c3c(c2F)CNC3=O)C1` (stereo not drawn) [Compound G-9], for which the IC50 at BTK WT came to 7 nM; at wild-type EGFR kinase it was 1010 nM.

Regarding `C=CC(=O)N1CCCC(Nc2nc(Nc3ccc(OCCO)cc3)c3c(c2F)CNC3=O)C1` (stereo not drawn) [Compound G-16], the IC50 turned out to be 2 nM against BTK WT and 2750 nM at wild-type EGFR kinase.

`C=CC(=O)N1CCCC(Nc2nc(Nc3ccc(N4CCN(C)CC4)nc3)c3c(c2F)CNC3=O)C1` (stereo not drawn) [Compound G-18]: the figures for the IC50 on BTK WT and on wild-type EGFR kinase were 41 nM and 1600 nM, respectively.

In the case of `C=CC(=O)N1CCCC(Nc2nc(Nc3ccc(N4CCC(O)C(C)(C)C4)cn3)c3c(c2F)CNC3=O)C1` (stereo not drawn) [Compound G-21], the IC50 is 59 nM against BTK WT and 8310 nM at wild-type EGFR kinase.

Turning to `C=CC(=O)N1CCCC(Nc2nc(Nc3ccc(N4CCN(C5COC5)CC4C)cn3)c3c(c2F)CNC3=O)C1` (stereo not drawn) [Compound G-22], on BTK WT, half-maximal inhibition (IC50) was put at 66 nM.

Turning to `C=CC(=O)N1CCCC(Nc2nc(Nc3ccc(C(=O)N4CCOCC4)cc3)c3c(c2F)CNC3=O)C1` (stereo not drawn) [Compound G-24], the IC50 is 5 nM against BTK WT and 1790 nM on wild-type EGFR kinase.

As to `C=CC(=O)N1CCCC(Nc2nc(Nc3cnn(C)c3)c3c(c2F)CNC3=O)C1` (stereo not drawn) [Compound G-38], the IC50 against BTK WT came out at 2 nM; on wild-type EGFR kinase it was 1290 nM.

Take `C=CC(=O)N1CCCCC(Nc2nc(-c3cnn(C)c3)c3c(c2F)CNC3=O)C1` (stereo not drawn) [Compound G-47]: the IC50 was 75 nM against BTK WT and over 10000 nM at wild-type EGFR kinase.

`C=CC(=O)N1CCCC(Nc2nc(-c3cnc(C)s3)c3c(c2F)CNC3=O)C1` (stereo not drawn) [Compound G-53]: the figures for the IC50 against BTK WT and on wild-type EGFR kinase were 51 nM and 7440 nM, respectively.

For the compound `C=CC(=O)N1CCCC(Nc2nc(-c3cnn(C)c3)c3c(c2F)CNC3=O)C1` (stereo not drawn) [Compound G-54], the IC50 at BTK WT was 15 nM; at wild-type EGFR kinase, over 10000 nM.

Consider `C=CC(=O)N1CCCC(Nc2nc3c(c(-c4cnn(C)c4)n2)C(=O)NC3)C1` (stereo not drawn) [Compound G-58, 2-(1-acryloylpiperidin-3-ylamino)-4-(1-methyl-1H-pyrazole-4-yl)-6,7-dihydrogen-5H-pyrrolo[3,4-d]pyrimidine-5(2H)-one], for which the IC50 is 80 nM on BTK WT and over 10000 nM at wild-type EGFR kinase.

`C=CC(=O)N1CCCC(N(C)c2nc(-c3cnn(CCN4CCOCC4)c3)c3c(c2F)CNC3=O)C1` (stereo not drawn) [Compound G-64, 6-((1-acryloylpiperidin-3-yl)(methyl)amino)-7-fluoro-4-(1-(2-morpholinethyl)-1H-pyrazole-4-yl)-1H-pyrrolo[3,4-c]pyridine-3(2H)-one]: the results for the IC50 against BTK WT and at wild-type EGFR kinase were 62 nM and over 10000 nM, respectively.

Take `C=CC(=O)N1CC(N(C)c2nc(-c3cnn(C)c3)c3c(c2F)CNC3=O)CCC1C` (stereo not drawn) [Compound G-65, 6-((1-acryloyl-6-methylpiperidin-3-yl)(methyl)amino)-7-fluoro-4-(1-methyl-1H-pyrazole-4-yl)-1H-pyrrolo[3,4-c]pyridine-3(2H)-one]: the IC50 was 7 nM on BTK WT and over 10000 nM on wild-type EGFR kinase.

With `C=CC(=O)N1CCCC(N(C)c2nc(-c3cnc(C)s3)c3c(c2F)CNC3=O)C1` (stereo not drawn) [Compound G-66, 6-((1-acryloylpiperidin-3-yl)(methyl)amino)-7-fluoro-4-(2-methylthiazole-5-yl)-1H-pyrrolo[3,4-c]pyridine-3(2H)-one], the IC50 is 15 nM against BTK WT and over 10000 nM on wild-type EGFR kinase.

As to `C=CC(=O)N1CCCC(N(C)c2nc(Nc3cnn(C)c3)c3c(c2F)CNC3=O)C1` (stereo not drawn) [Compound G-70, 6-((1-acryloylpiperidin-3-yl)(methyl)amino)-7-fluoro-4-(1-methyl-1H-pyrazole-4-ylamino)-1H-pyrrolo[3,4-c]pyridine-3(2H)-one], the IC50 is 5 nM on BTK WT and over 10000 nM on wild-type EGFR kinase.

For the compound `C=CC(=O)N1CCCCC(N(C)c2nc(Nc3ccc(N4CCOCC4)cc3)c3c(c2F)CNC3=O)C1` (stereo not drawn) [Compound G-73, 6-((1-acryloylazacycloheptan-3-yl)(methyl)amino)-7-fluoro-4-(4-morpholin)-1H-pyrrolo[3,4-c]pyridine-3(2H)-one], the IC50 was determined as 5 nM on BTK WT and 1560 nM at wild-type EGFR kinase.

As to `C=CC(=O)N1CCCC(N(CC)c2nc(Nc3ccc(N4CCOCC4)cc3)c3c(c2F)CNC3=O)C1` (stereo not drawn) [Compound G-74, 6-((1-acryloylpiperidin-3-yl)(ethyl)amino)-7-fluoro-4-(4-morpholin)-1H-pyrrolo[3,4-c]pyridine-3(2H)-one], the IC50 was 7 nM against BTK WT and 1370 nM on wild-type EGFR kinase.

`C=CC(=O)N1CCCC(N(C)c2nc3c(c(Nc4cnn(C)c4)n2)C(=O)NC3)C1` (stereo not drawn) [Compound G-75, 2-((1-acryloylpiperidin-3-yl)(methyl)amino)-4-(1-methyl-1H-pyrazole-4-ylamino)-6,7-dihydrogen-5H-pyrrolo[3,4-d]pyrimidine-5-one]: the IC50 is 6 nM on BTK WT and 1630 nM on wild-type EGFR kinase.

Take `C=CC(=O)N1CCC2(CCN(c3nc(-c4cnn(C)c4)c4c(c3F)CNC4=O)C2)C1` (stereo not drawn) [Compound G-77]: the IC50 against BTK WT was 51 nM; at wild-type EGFR kinase, over 10000 nM.

Regarding `C=CC(=O)N1CC2CCN(c3nc(Nc4cnn(C)c4)c4c(c3F)CNC4=O)C2C1` (stereo not drawn) [Compound G-84], the figures for the IC50 on BTK WT and on wild-type EGFR kinase were 89 nM and over 10000 nM, respectively.

At BTK WT, `C=CC(=O)N1CC2CN(c3nc(-c4cnn(C)c4)c4c(c3F)CNC4=O)CC2C1` (stereo not drawn) [Compound G-89] showed an IC50 of 5 nM.

Broadly, the AUC is the area under the concentration-time curve, a measure of exposure. Low values mean less exposure, high ones more exposure. As usually defined, the Cmax is the peak of the concentration-time curve. For orientation: Tmax means the time from dosing to the highest level. As usually defined, the bioavailability is the share of a dose that reaches the circulation, judged against a reference dose that is usually intravenous. High values mean good availability, low ones poor availability. What is called half-life is how long it takes for the measured level to halve. Read a low half-life as fast loss. Consider `C=CC(=O)N1CCC[C@@H](Nc2nc(Nc3ccc(N4CCN(C5COC5)C[C@@H]4C)c(F)c3)c3c(c2F)CNC3=O)C1` [Compound G-91], for which half-maximal inhibition against BTK WT (IC50) was put at 5 nM. Also, in the data set “in vivo”, the AUC is 3150 ng·h/mL, the Cmax amounted to 2910 ng/mL, the Tmax was determined as 0.25 h and the bioavailability came to 21.3%. The compound further showed a half-life in the data set “in vivo” of 4.7 h.

Consider `C=CC(=O)N1C[C@H](N(C)c2nc(Nc3ccc(N4CCOCC4)c(F)c3)c3c(c2F)CNC3=O)CC[C@@H]1C` [Compound G-92], for which, at BTK WT, it took 8 nM to reach half-maximal inhibition (IC50).

With `C=CC(=O)N1CCC[C@@H](N(C)c2nc(-c3cnc(C)s3)c3c(c2F)CNC3=O)C1` [Compound G-94], inhibition at BTK WT was half-maximal at 20 nM (IC50).

With `C=CC(=O)N1C[C@H](Nc2nc(Nc3ccc(N4CCN(C5COC5)C[C@@H]4C)c(F)c3)c3c(c2F)CNC3=O)CC[C@@H]1C` [Compound G-95], the IC50 on BTK WT was 5 nM.

Turning to `C=CC(=O)N1CCC[C@@H](Nc2nc(Nc3ccc(CN4CCOCC4)cc3)c3c(c2F)CNC3=O)C1` [Compound G-97], the IC50 at BTK WT was determined as 5 nM.

Compound `C=CC(=O)N1C[C@H](N(C)c2nc(-c3cnn(C)c3)c3c(c2F)CNC3=O)CC[C@H]1C` [Compound G-99] gave an IC50 against BTK WT of 18 nM.

`C=CC(=O)N1CCC[C@@H](Nc2nc(Nc3ccc(N4CCOC[C@@H]4C)cc3F)c3c(c2F)CNC3=O)C1` [Compound G-102] had a half-inhibitory concentration (IC50) on BTK WT of 5 nM.

`C=CC(=O)N1CCC[C@@H](N(C)c2nc(-c3c[nH]c(C)n3)c3c(c2F)CNC3=O)C1` [Compound G-105]: on BTK WT, the IC50 was 8 nM.

`C=CC(=O)N1CCC[C@@H](Nc2cc3c(c(Nc4ccc(N5CCOCC5)cc4)n2)C(=O)NC3)C1` [Compound G-107]: it took 5 nM to reach half-maximal inhibition on BTK WT (IC50).

(Values after patent US11155546B2, “4,6,7-trisubstituted 1,2-dihydropyrrolo[3,4-c]pyridin/pyrimidin-3-one derivatives and uses thereof” (SHANGHAI HAIYAN PHARMACEUTICAL TECHNOLOGY CO., LTD., priority 2017, dated 2021).)
